One assay deals with SOD1-G93A TGN mice. As to the kind of experiment: Onset of symptoms (stride length/gait analysis) and death in SOD1-G93A TGN mice, treatment started presymptomatic (7 weeks). The class given is in vivo, mouse. The conditions noted are these: for Onset of motor deficits: vehicle 20% cyclodextran 88-100 days; for Mortality: vehicle 20% cyclodextran 105-112 days. The method, then: The one and two-drug treatments were started at an early (i.e., presymptomatic) stage of disease (7 weeks). SOD1-G93A TGN mice were treated 3 times a week with noscapine (0.2 mg/kg body weight) and/or MK-801 (12 mg/kg body weight/day). Mice received noscapine intraperitoneally and MK-801 in drinking water.
Female SOD-1 G93A TGN mice were obtained from Jackson laboratory (strain #2726). The controls were matched litter mates. Treatment groups were three per group. Noscapine was injected intraperitoneal in the thigh 3 times/week (0.2 mg/kg i.p.) and MK801 was administered continuously in drinking water (12 mg/kg/d). Gait analysis was done by the method of Wooley et al., Muscle Nerve 2005 32(1):43-50 and Carter et al. J. Neurosci., 19(8):3248-3257, hereby incorporated by reference in their entirety.
For clinical assessment endpoints scoring was selected as follows:
Clinical signs: Full mobility and no observable difference in behavior from age-matched controls (Gait or stride length analysis).
Clinical signs: Abnormal Gait or stride length analysis and hindlimb weakness: >40% reduction in stride length vs. age-matched littermates.
Clinical signs: noticeable and complete hind limb paralysis (which in this strain occurs more on one limb than the other) and inability to right themselves in 5 sec time window. This stage starts usually as the mice are failing the gait analysis test and enter the End stage. Therefore, Transgenic SOD1-G93A TGN mice are euthanized at the onset of noticeable and complete hindlimb paralysis and inability to right themselves in 5 sec time window.

A further assay relates to MPTP-injected mice. The assay is described as follows: Neuromuscular strength (grip strength test, grid hang test) in MPTP-injected mice. Type of assay: in vivo, mouse. Particulars: treatment from 7 days after last MPTP injection for 10 days; n=10. On the procedure:
Noscapine was administered at 7 days after the last MPTP-injection, treatment was for 10 days and a pulse of ^2H2O labeling was administered the last day of treatment (17 days after, fourth, MPTP injection). […] Neuromuscular strength was measured using the grip strength test (B) and the grid hang test (C). […] The hang test was performed 17 days after the last (fourth) MPTP-injection and percentage of success was recorded as maximum time hanging/300 sec×100 (n=10, males per each time point).

Assay [1] deals with transport of neuronal cargo proteins. As to the kind of experiment: CSF secretion kinetics of 2H-labeled cargo proteins in symptomatic PD MPTP-injected mice. The class given is in vivo, mouse. The method, then:
Noscapine was administered 7 days after the last MPTP injection, treatment was for 10 days, and a pulse of ^2H2O labeling was administered on the last day of treatment (17 days after the fourth and final MPTP injection

Another assay has as its system hyperdynamic MTs. As to the kind of experiment: Microtubule turnover in MPTP-injected PD mouse model. Type of assay: in vivo. The conditions noted are these: treatment from 7 days after last MPTP injection for 10 days; n=4. The method, then:
FIGS. 28A-28B show an illustration of altered microtubule (MT) turnover in two preclinical models of Parkinson's disease (PD). (A) The acute MPTP intoxication PD model (8 wk old C57b1/6 mice were injected four times with 20 mg/kg on 1 day, at 2 h interval) show hyperdynamic tau-associated and cold-stable (CS) MTs in striatum and substantia nigra at 3 and 7 days after the last (fourth) MPTP injection (n=4 per group, males aged 8 weeks, mean±SD; *P<0.001). (B) In vivo MT dynamics was measured in substantia nigra and striatum at presymptomatic (4 and 10 months) and symptomatic (15 months) disease stage in transgenic alpha-synucleinA53T PD mice (−/−/SNCAA53T). […]
FIGS. 29A-29C show normalized microtubule (MT) turnover correlate with reverse of symptoms in the MPTP-injected PD mouse model after treatment with the MTMA noscapine. […] Neuromuscular strength was measured using the grip strength test (B) and the grid hang test (C). Grip strength test measured the tension peak of pull (gram of force) by the forepaws and it was performed 1 day before (day 0), 1, 2, 3, 4, 5, 7 and 17 days after the last (fourth) MPTP injection (n=10, males per each time point). The hang test was performed 17 days after the last (fourth) MPTP-injection and percentage of success was recorded as maximum time hanging/300 sec×100 (n=10, males per each time point).

Assay [2] has as its system fast axonal transport of 2H-labeled cargo proteins. As to the kind of experiment: MT-mediated fast axonal transport: CSF secretion kinetics and spinal cord retention of 2H-labeled cargo proteins in symptomatic SOD1G93A mice. The class given is in vivo, mouse.

Entries after “also recorded” stand apart in the source; their conditions may differ.

For the compound `C[C@]12N[C@H](Cc3ccccc31)c1ccccc12` [MK-801, Dizocilipine], in the assay with SOD1-G93A TGN mice, the “Onset of motor deficits” value is 105 to 112 days and the Mortality was 112 to 119 days.

With `COc1ccc2c(c1OC)C(=O)O[C@@H]2[C@H]1c2c(cc3c(c2OC)OCO3)CCN1C` [Noscapine, noscapine], the “symptoms (grip strength test, grid hang test)” value in the assay on MPTP-injected mice is reported as “reverses symptoms”. In assay [1] (symptomatic PD MPTP-injected mice), the “kinetics of 2H-NeuR-1 in CSF” value is listed as “not adversely affected”. Besides, the “kinetics of secretion of 2H-Chr-B, 2H-sAPP in CSF” value in assay [1] (treatment from 7 days after last MPTP injection for 10 days, n=10 per time point) is on record as “normalized the kinetics of secretion”. Also, in the assay with SOD1-G93A TGN mice, the “Onset of motor deficits” value fell in the range of 98 to 105 days and the Mortality was 112 to 119 days. Besides, in the assay with hyperdynamic MTs, the “hyperdynamic MTs” value is recorded as “reduced hyperdynamic MTs”. Further, the “MT-mediated fast axonal transport rates of 2H-label neuregulin-1 and chromogranin-B containing synaptic vesicles” value in assay [2] (3 weeks treatment, 100 mg/kg/d and 200 mg/kg/d, 13 weeks mice) is given as “normalized; also recorded: improves this delayed fast axonal transport”. Further, the “kinetic of 2H-alpha synuclein in CSF” value in assay [2] (symptomatic ALS SOD1G93A) is “not adversely affected”. In addition, the “transport rates of 2H-Chr-B, 2H-NeuR-1 and 2H-sAPP in CSF” value in assay [2] (symptomatic ALS SOD1G93A, vs age-matched wild type, n=10 per time point) is listed as “normalized transport rates”.

The values are drawn from patent publication US20140274785A1, “BIOMARKERS” (priority 2013, published 2014).
